Results on two compounds are retold here after patent US11661400B2, “NADPH oxidase inhibitors, pharmaceutical composition comprising the same, and application thereof” (TAIWANJ PHARMACEUTICALS CO., LTD., priority 2018, dated 2023).

The target of one assay is T1, NOX1 (Homo sapiens, UniProt Q9Y5S8).
T1 construct: endogenous in cells; host or cells: HT29
T1 sequence (Q9Y5S8 1-564): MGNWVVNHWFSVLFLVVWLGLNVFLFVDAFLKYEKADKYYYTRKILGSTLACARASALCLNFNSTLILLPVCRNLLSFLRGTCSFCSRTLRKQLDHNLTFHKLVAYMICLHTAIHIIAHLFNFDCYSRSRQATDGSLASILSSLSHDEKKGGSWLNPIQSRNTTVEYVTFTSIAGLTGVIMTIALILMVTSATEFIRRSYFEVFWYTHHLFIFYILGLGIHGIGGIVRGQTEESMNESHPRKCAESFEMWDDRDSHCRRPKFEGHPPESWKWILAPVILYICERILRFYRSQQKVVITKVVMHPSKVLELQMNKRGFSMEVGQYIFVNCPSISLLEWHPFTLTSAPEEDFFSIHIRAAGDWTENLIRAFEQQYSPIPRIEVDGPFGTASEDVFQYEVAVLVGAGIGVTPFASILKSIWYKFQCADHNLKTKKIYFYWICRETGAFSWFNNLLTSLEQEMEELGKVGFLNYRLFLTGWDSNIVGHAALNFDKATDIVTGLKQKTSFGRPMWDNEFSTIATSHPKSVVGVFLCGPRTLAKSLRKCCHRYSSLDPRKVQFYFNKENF
T1 sequence (P13498 2-195 partner limits assumed): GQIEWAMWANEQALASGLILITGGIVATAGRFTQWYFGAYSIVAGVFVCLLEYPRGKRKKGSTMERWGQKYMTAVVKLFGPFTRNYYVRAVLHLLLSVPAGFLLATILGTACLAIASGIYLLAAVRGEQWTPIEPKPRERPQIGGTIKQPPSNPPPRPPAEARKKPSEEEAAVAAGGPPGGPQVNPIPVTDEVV
In words: NOX1 HT29 cell-based assay (luminol/HRP luminescence). The following applies: HT29 cells, DMSO = 0%, GKT137831 = 100%. The method in brief:
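HT29 cells (1-2×10^5 per well) pretreated 30-60 min at 37 °C with compound at 100 nM and 1000 nM final, in duplicate, 0.1% DMSO. ROS read as luminol (100 μM)/HRP (0.4 U) luminescence. Activity normalised to DMSO (0%) and GKT137831 (100%).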

The next assay deals with T2, NOX2 (Homo sapiens, UniProt P04839).
T2 construct: HL-60 cells, rich in NOX2 expression; endogenous in cells; host or cells: DMSO-differentiated HL-60
T2 sequence (P04839 2-570 limits assumed): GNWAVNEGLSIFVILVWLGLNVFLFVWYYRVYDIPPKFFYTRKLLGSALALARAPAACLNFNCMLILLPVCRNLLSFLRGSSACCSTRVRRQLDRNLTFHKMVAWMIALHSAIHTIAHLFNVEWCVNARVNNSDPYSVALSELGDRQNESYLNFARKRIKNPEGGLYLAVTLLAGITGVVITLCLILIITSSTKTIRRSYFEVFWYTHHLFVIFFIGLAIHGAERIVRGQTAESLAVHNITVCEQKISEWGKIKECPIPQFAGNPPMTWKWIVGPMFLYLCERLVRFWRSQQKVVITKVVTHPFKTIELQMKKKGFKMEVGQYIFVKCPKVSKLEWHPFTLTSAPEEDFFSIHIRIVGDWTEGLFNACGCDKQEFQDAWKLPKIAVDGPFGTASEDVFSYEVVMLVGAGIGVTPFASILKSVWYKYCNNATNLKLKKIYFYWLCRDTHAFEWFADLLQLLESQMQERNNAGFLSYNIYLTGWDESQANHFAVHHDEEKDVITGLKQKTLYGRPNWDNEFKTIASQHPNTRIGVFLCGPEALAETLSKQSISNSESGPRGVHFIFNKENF
T2 sequence (P13498 2-195 partner limits assumed): T1 sequence (P13498 2-195 partner limits assumed)
In words: NOX2 HL60 cell-based assay (PMA oxidative burst, L012 chemiluminescence). The following applies: DMSO-differentiated HL-60 cells, PMA-stimulated. An outline of the steps:
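DMSO-differentiated HL-60 cells (2.5×10^5/well) with 100 μM L012 preincubated with compound 30-60 min at 37 °C in the dark. Oxidative burst triggered by 10 ng/mL PMA; superoxide chemiluminescence read every 5 min for 60 min.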

For a further assay, the target named is T3, NOX4 (Homo sapiens, UniProt Q9NPH5).
T3 construct: expressed in transfected cells
T3 sequence (Q9NPH5 1-578): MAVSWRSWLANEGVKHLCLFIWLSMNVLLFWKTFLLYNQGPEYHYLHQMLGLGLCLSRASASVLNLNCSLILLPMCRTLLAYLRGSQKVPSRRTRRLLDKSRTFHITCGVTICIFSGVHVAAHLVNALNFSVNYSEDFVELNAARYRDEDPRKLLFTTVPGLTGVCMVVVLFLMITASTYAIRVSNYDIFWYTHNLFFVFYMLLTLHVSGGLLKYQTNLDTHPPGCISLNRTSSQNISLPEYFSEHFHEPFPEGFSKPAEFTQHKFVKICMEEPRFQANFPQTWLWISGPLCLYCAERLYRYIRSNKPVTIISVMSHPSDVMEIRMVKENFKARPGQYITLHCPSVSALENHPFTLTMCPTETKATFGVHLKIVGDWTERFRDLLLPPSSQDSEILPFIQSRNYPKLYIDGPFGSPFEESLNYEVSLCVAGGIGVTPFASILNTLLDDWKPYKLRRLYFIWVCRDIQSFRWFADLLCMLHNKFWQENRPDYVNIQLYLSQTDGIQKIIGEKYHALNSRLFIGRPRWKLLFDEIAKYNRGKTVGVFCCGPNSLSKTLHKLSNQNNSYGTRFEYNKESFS
T3 sequence (P13498 2-195 partner limits assumed): T1 sequence (P13498 2-195 partner limits assumed)
Put plainly: NOX4 HEK293 overexpression cell-based assay (Amplex Red H2O2). The following applies: HEK293 cells stably overexpressing NOX4, DMSO = 0, GKT137831 = 100. The method in brief: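 HEK293 cells stably overexpressing NOX4 (3×10^4) preincubated 30 min at 37° C with compound in KRPG buffer, then mixed with Amplex Red reagent solution (50 μM Amplex Red, 0.1 units/mL HRP) for 90 min at 37° C in the dark. Supernatant fluorescence read at 530/590 nm; DMSO set to 0 and GKT137831 to 100.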

The inhibition is the share of the control response that was lost under treatment. Low readings indicate a response near the control, high ones a response far below the control. On to `COc1cc2[nH]c(-c3ccccc3OC)c(O)c(=O)c2cc1OC.Cl` [Compound 51], for which the inhibition at 0.1 µM was not below 80% against NOX1 (HT-29, 100 nM) and not above 19% against NOX4 (HEK293, 100 nM). Further, the inhibition at 1 µM against NOX1 (HT-29, 1000 nM) was not below 80%; against NOX2 (HL-60, 1000 nM), not below 80%. On NOX2 (100 nM), the “% Inhibition NOX2” value is “C (the percent of inhibition of NOX by the compounds ranges from 2000 to 49%)”. Further, the “% Inhibition NOX4” value at NOX4 (1000 nM) is listed as “B (the percent of inhibition of NOX by the compounds ranges from 50% o to 79% o)”.

As to `COc1cc2[nH]c(-c3ccccc3OC(F)(F)F)c(O)c(=O)c2cc1OC.Cl` [Compound 52], the “% Inhibition NOX1” value at NOX1 (100 nM) and on NOX1 (1000 nM) was “A (the percent of inhibition of NOX by the compounds is larger than or equals to 80%)” in each case. The “% Inhibition NOX2” value is “C (the percent of inhibition of NOX by the compounds ranges from 2000 to 49%)” at NOX2 (100 nM) and “B (the percent of inhibition of NOX by the compounds ranges from 50% o to 79% o)” at NOX2 (1000 nM). The “% Inhibition NOX4” value on NOX4 (100 nM) is on record as “C (the percent of inhibition of NOX by the compounds ranges from 2000 to 49%)”; on NOX4 (1000 nM) it was “B (the percent of inhibition of NOX by the compounds ranges from 50% o to 79% o)”.
